Converted amounts (≈) assume the structure as drawn. Where two headings read alike, the source gives them in different places.

The text below walks through data of US4552879A, “Benzoheterocyclic compounds and pharmaceutical composition thereof” (Otsuka Pharmaceutical Co., Ltd., priority 1980, dated 1985).

Common to all, as to assay: Minimum inhibitory concentration, serial dilution method on agar plate
Common to all, as to assay type: cell-based

For experiment [1], the system named is Escherichia Coli NIHJ JC-2 (IFO 12734).
The test system of experiment [2] is Klebsiella pneumoniae.
Experiment [3] relates to Proteus rettgeri NIH 96. Conditions: Providencia rettgeri.
Experiment [4] has as its system Pseudomonas aeruginosa E-2. To be noted: Pseudomonas aeruginosa, read-out: Minimum Inhibitory Concentration.
The subject of experiment [5] is Pseudomonas putida 12996. To be noted: read-out: Minimum Inhibitory Concentration.
In experiment [6] the test system is Pseudomonas aeruginosa ATCC 10145. To be noted: Pseudomonas aeruginosa, read-out: Minimum Inhibitory Concentration.
Experiment [7] deals with Salmonella typhi 0-901 (NCTC 8393). To be noted: Salmonella enterica.
The subject of experiment [8] is Shigella sonnei EW 33. How it is done: The antimicrobial activity of the following test compounds on various test organisms listed below was determined by the serial dilution method on agar plate (Heart Infusion agar produced by Difco Co.) (see CHEMOTHERAPY 22, pp. 1126-1128 (1974)), and the minimum inhibitory concentrations (mcg/ml) obtained are shown in Tables 1, 2 and 3 below.
A sample of each test organism was prepared so that the population of the organism was 1×10^8 cells/ml (O.D. 660 mμ=0.07 to 0.16) and 1×10^6 cells/ml (which was obtained by diluting 100 fold the above 1×10^8 cells/ml preparation).

The subject of experiment [9] is Serratia marcescens IFO 12648. Conditions: read-out: Minimum Inhibitory Concentration.
The subject of experiment [10] is Staphylococcus aureus FDA 209 P. To be noted: Staphylococcus aureus, read-out: Minimum Inhibitory Concentration.
The test system of experiment [11] is Streptococcus pyogenes IID S-23. To be noted: Streptococcus pyogenes, read-out: Minimum Inhibitory Concentration.
Setting [12] is: read-out: Minimum Inhibitory Concentration, 1×10^6 cells/ml.
Setting [13] is: read-out: Minimum Inhibitory Concentration, 1×10^8 cells/ml.
Where [14] appears, read: NIH96, 1×10^6 cells/ml, read-out: Minimum Inhibitory Concentration.
The mark [15] stands for this setting: NIH96, read-out: Minimum Inhibitory Concentration, 1×10^8 cells/ml.
Setting [16] is: Pseudomonas putida, 12996, 1×10^6 cells/ml.
[17] abbreviates: Pseudomonas putida, 12996, 1×10^8 cells/ml.
[18] abbreviates: 1×10^6 cells/ml, read-out: Minimum Inhibitory Concentration.
[19] abbreviates: 1×10^8 cells/ml, read-out: Minimum Inhibitory Concentration.

Regarding `CC1CCc2c(N3CCOCC3)c(F)cc3c(=O)c(C(=O)O)cn1c23` (stereo not drawn) [Compound 2, 9-Fluoro-8-morpholino-5-methyl-6,7-dihydro-1-oxo-1H,5H-benzo[ij]quinolizine-2-carboxylic acid], the MIC in experiment [1] (setting [12]) is 0.1 µg/mL (≈ 0.289 µM); in experiment [1] (setting [13]) it was 0.2 µg/mL (≈ 0.577 µM); in experiment [2] (setting [12]) it was 0.2 µg/mL (≈ 0.577 µM); in [2] (setting [13]), 0.2 µg/mL (≈ 0.577 µM); in experiment [3] (setting [14]), 0.05 µg/mL (≈ 0.144 µM); in experiment [3] (setting [15]), 0.1 µg/mL (≈ 0.289 µM). For the same molecule, the MIC in [4] (E2, 1×10^6 cells/ml) is 3.13 µg/mL (≈ 9.04 µM); in experiment [4] (E2, 1×10^8 cells/ml), 6.25 µg/mL (≈ 18 µM); in experiment [5] (setting [16]), 3.13 µg/mL (≈ 9.04 µM); in [5] (setting [17]), 6.25 µg/mL (≈ 18 µM); in experiment [6] (ATCC10145, 1×10^6 cells/ml) it was 3.13 µg/mL (≈ 9.04 µM); in experiment [6] (ATCC10145, 1×10^8 cells/ml) it was 3.13 µg/mL (≈ 9.04 µM). Moreover, the MIC in experiment [7] (setting [12]) was determined as 0.05 µg/mL (≈ 0.144 µM); in experiment [7] (setting [13]), 0.1 µg/mL (≈ 0.289 µM); in [8] (EW33, 1×10^6 cells/ml) it was 0.1 µg/mL (≈ 0.289 µM); in [8] (EW33, 1×10^8 cells/ml) it was 0.1 µg/mL (≈ 0.289 µM); in [9] (IFO12648, 1×10^6 cells/ml), 0.39 µg/mL (≈ 1.13 µM); in [9] (IFO12648, 1×10^8 cells/ml), 0.78 µg/mL (≈ 2.25 µM). For the same molecule, the MIC in [10] (FDA209, 1×10^6 cells/ml) was 0.025 µg/mL (≈ 0.0722 µM); in experiment [10] (FDA209, 1×10^8 cells/ml), 0.05 µg/mL (≈ 0.144 µM); in experiment [11] (IIDS23, 1×10^6 cells/ml) it was 0.78 µg/mL (≈ 2.25 µM); in experiment [11] (IIDS23, 1×10^8 cells/ml) it was 0.78 µg/mL (≈ 2.25 µM).
`CC(=O)OC1CCN(c2c(F)cc3c(=O)c(C(=O)O)cn4c3c2CCC4C)CC1` (stereo not drawn) [Compound 3, 9-Fluoro-8-(4-acetyloxy-1-piperidyl)-5-methyl-6,7-dihydro-1-oxo-1H,5H-benzo[ij]quinolizine-2-carboxylic acid]: the MIC in experiment [1] (setting [18]) stood at 0.39 µg/mL (≈ 0.969 µM); in experiment [1] (setting [19]), 0.39 µg/mL (≈ 0.969 µM); in experiment [2] (setting [18]) it was 0.39 µg/mL (≈ 0.969 µM); in experiment [2] (setting [19]), 0.39 µg/mL (≈ 0.969 µM); in experiment [3] (NIH96, read-out: Minimum Inhibitory Concentration, 1×10^6 cells/ml), 0.2 µg/mL (≈ 0.497 µM); in experiment [3] (setting [15]), 0.2 µg/mL (≈ 0.497 µM). The MIC in experiment [4] (E2, 1×10^6 cells/ml) turned out to be 6.25 µg/mL (≈ 15.5 µM); in [4] (E2, 1×10^8 cells/ml), 6.25 µg/mL (≈ 15.5 µM); in experiment [5] (setting [16]) it was 6.25 µg/mL (≈ 15.5 µM); in experiment [5] (setting [17]) it was 6.25 µg/mL (≈ 15.5 µM); in experiment [6] (ATCC10145, 1×10^6 cells/ml), 3.13 µg/mL (≈ 7.78 µM); in experiment [6] (ATCC10145, 1×10^8 cells/ml), 6.25 µg/mL (≈ 15.5 µM). Moreover, the MIC in [7] (setting [12]) worked out at 0.1 µg/mL (≈ 0.248 µM); in experiment [7] (setting [13]) it was 0.1 µg/mL (≈ 0.248 µM); in [8] (EW33, 1×10^6 cells/ml) it was 0.2 µg/mL (≈ 0.497 µM); in experiment [8] (EW33, 1×10^8 cells/ml), 0.2 µg/mL (≈ 0.497 µM); in [9] (IFO12648, 1×10^6 cells/ml), 1.56 µg/mL (≈ 3.88 µM); in experiment [9] (IFO12648, 1×10^8 cells/ml), 3.13 µg/mL (≈ 7.78 µM). Further, the MIC in experiment [10] (FDA209, 1×10^6 cells/ml) was determined as 0.05 µg/mL (≈ 0.124 µM); in experiment [10] (FDA209, 1×10^8 cells/ml), 0.05 µg/mL (≈ 0.124 µM); in [11] (IIDS23, 1×10^6 cells/ml), 0.78 µg/mL (≈ 1.94 µM); in experiment [11] (IIDS23, 1×10^8 cells/ml) it was 0.78 µg/mL (≈ 1.94 µM).
In the case of `CC1CCc2c(N3CCCCC3)c(F)cc3c(=O)c(C(=O)O)cn1c23` (stereo not drawn) [Compound 4, 9-Fluoro-8-(1-piperidyl)-5-methyl-6,7-dihydro-1-oxo-1H,5H-benzo[ij]quinolizine-2-carboxylic acid], the MIC in [1] (setting [18]) was found to be 1.56 µg/mL (≈ 4.53 µM); in experiment [1] (setting [19]), 1.56 µg/mL (≈ 4.53 µM); in experiment [2] (setting [18]) it was 1.56 µg/mL (≈ 4.53 µM); in experiment [2] (setting [19]), 1.56 µg/mL (≈ 4.53 µM); in experiment [3] (setting [14]), 1.56 µg/mL (≈ 4.53 µM); in experiment [3] (NIH96, 1×10^8 cells/ml, read-out: Minimum Inhibitory Concentration), 1.56 µg/mL (≈ 4.53 µM). Moreover, the MIC was found to be 12.5 µg/mL (≈ 36.3 µM) in experiment [4] (E2, 1×10^6 cells/ml); 25 µg/mL (≈ 72.6 µM) in experiment [4] (E2, 1×10^8 cells/ml); 25 µg/mL (≈ 72.6 µM) in experiment [5] (setting [16]); 25 µg/mL (≈ 72.6 µM) in [5] (setting [17]); 12.5 µg/mL (≈ 36.3 µM) in experiment [6] (ATCC10145, 1×10^6 cells/ml); 12.5 µg/mL (≈ 36.3 µM) in experiment [6] (ATCC10145, 1×10^8 cells/ml). Also, the MIC in experiment [7] (setting [12]) was found to be 0.39 µg/mL (≈ 1.13 µM); in [7] (setting [13]), 0.39 µg/mL (≈ 1.13 µM); in experiment [8] (EW33, 1×10^6 cells/ml), 0.78 µg/mL (≈ 2.26 µM); in [8] (EW33, 1×10^8 cells/ml), 0.78 µg/mL (≈ 2.26 µM); in experiment [9] (IFO12648, 1×10^6 cells/ml) it was 6.25 µg/mL (≈ 18.1 µM); in experiment [9] (IFO12648, 1×10^8 cells/ml), 12.5 µg/mL (≈ 36.3 µM). In addition, the MIC was 0.05 µg/mL (≈ 0.145 µM) in experiment [10] (FDA209, 1×10^6 cells/ml); 0.05 µg/mL (≈ 0.145 µM) in [10] (FDA209, 1×10^8 cells/ml); 0.78 µg/mL (≈ 2.26 µM) in experiment [11] (IIDS23, 1×10^6 cells/ml); 1.56 µg/mL (≈ 4.53 µM) in experiment [11] (IIDS23, 1×10^8 cells/ml).
